Assay results taken from patent US12697319B2, “Methods for inhibiting the progression of neurodegenerative diseases” (BioJiva LLC, priority 2021, dated 2026).
Where two headings read alike, the source gives them in different places.

How the values were obtained:
[1] = for Concentration of D2-AA in the RBCs, high: highest of cohort; for Concentration of D2-AA in the RBCs, low: lowest of cohort
Method: In this example, children suffering from INAD were treated with a daily dose of 3.9 grams of D2-LA ethyl ester followed by 2.9 grams of D2-LA ethyl ester. Given the age and weight of these children, such is assumed to be substantially equivalent to a loading dose of from about 7 and about 12 grams per day for an adult patient for an adult patient and a maintenance dose which is less than the loading dose again for an adult patient.
This example also determines the concentration of D2-AA in RBCs. Specifically, a cohort of 14 children was provided with a daily dose of 3.9 grams of D2-LA ethyl ester for 1 month followed by 2.9 grams of D2-LA ethyl ester for the remaining six-month period. Blood samples were taken at 3 months for all but 1 child and at 6 months for all children. The concentration of D2-AA in RBCs was measured.

[2] = Concentration of D2-LA and D2-AA in RBCs of the same single patient (Example 1); settings: extrapolated from the 3 and 6 month values
Excerpt: This example determines the relative concentration of D2-AA in the CSF and in RBCs in order to determine a correlation between these two concentrations. Specifically, a patient was continuously provided with a daily dose of 9 grams of D2-LA ethyl ester (which is 8.64 grams of active discounting for impurities and removal of the ethyl ester) over about a six-month period. […] In all cases, the D2-AA was obtained by deacylation of the ethyl ester of linoleic acid in the gastrointestinal tract followed by conversion of D2-LA in vivo to D2-AA.

[3] = tested on: patients with ALS; experiment: ALSFRS-R functional decline in cohort of 3 ALS patients on primer plus maintenance dosing of D2-LA ethyl ester (Example 3); type: in vivo, human; settings: about 9 grams daily for at least 30 days then 5 grams, natural history 21
Method: As set forth in the examples below, the rate of functional decline is predicated on measuring an individual's, or a cohort's, average for the natural history of disease progression. Next, the individual or cohort average for the functional decline is determined at a period of time such as at 3, 6 or 12 months after initiation of therapy. The rate of decline based on the average of the natural history of the cohort is set as the denominator. The numerator is set as the delta between the rate of the natural history of disease progression and the rate of functional decline after a set period of treatment per this invention. The resulting fraction is the multiplied by 100 to give a percent change. The following exemplifies this analysis. […]
The functionality of each of the patients was evaluated periodically using the ALSFRS-R protocol. […] Before initiation of therapy, the natural history of each patient in the cohort was determined and an average annual rate of functional decline was measured at 21.
The annualized progression of the disease, as measured by an average annual rate of functional decline for all three patients starting at the time that dosing began and terminating at the end of the dosing regimen and then annualized as described above, was measured as 2.1. […]

[4] = tested on: murine fibroblasts; settings: fold vs D2-AA; erastin-treated murine fibroblasts
Method: In this example, two different pools of cells were each seeded in 48-well plates and treated with 50 micromolar of erastin.
Afterwards, cell viability was measured by plate dilution assay to distinguish between cells that are alive and those that are dead on a Petri dish.

## [2H]C([2H])(/C=C\C/C=C\C/C=C\CCCC(=O)O)/C=C\CCCCC [D2-AA, 13,13-D2-Arachidonic Acid]
[1]; 3 months
  Concentration of D2-AA in the RBCs, high: 16.8%
  Concentration of D2-AA in the RBCs, low: 6.8%
[1]; 6 months
  Concentration of D2-AA in the RBCs, high: 26.1%
  Concentration of D2-AA in the RBCs, low: 12.0%
[2]
  Amount of D2-AA at 1 month in RBCs (estimated by linear extrapolation, FIG. 1): about 3%

## [2H]C([2H])(/C=C\CCCCC)/C=C\CCCCCCCC(=O)OCC [D2-LA ethyl ester, 11,11-D2-linoleic acid ethyl ester]
[3]
  Average annual rate of functional decline during dosing (ALSFRS-R), annualized: 2.1

## [2H]C([2H])(/C=C\CCCCC)/C=C\C([2H])([2H])/C=C\C([2H])([2H])/C=C\CCCC(=O)O
[4]
  Level of protection against LPO induced cell death relative to 13,13-D2-arachidonic acid: approximately twice
